Measured values reported in patent EP2727916A1, “Neuroprotective multi-target directed drugs” (Universitat Autònoma de Barcelona, priority 2012, dated 2014).
Entries after “also recorded” stand apart in the source; their conditions may differ.

Legend:
[1] = target: electrophorus electricus acetylcholinesterase (eeAChE) (Electrophorus electricus, UniProt O42275); assay: biochemical; type: biochemical
[2] = target: equine serum butyrylcholinesterase (eqBuChE) (Equus caballus, UniProt P81908); assay: biochemical; type: biochemical
Sequence of equine serum butyrylcholinesterase (eqBuChE) (P81908 whole entry): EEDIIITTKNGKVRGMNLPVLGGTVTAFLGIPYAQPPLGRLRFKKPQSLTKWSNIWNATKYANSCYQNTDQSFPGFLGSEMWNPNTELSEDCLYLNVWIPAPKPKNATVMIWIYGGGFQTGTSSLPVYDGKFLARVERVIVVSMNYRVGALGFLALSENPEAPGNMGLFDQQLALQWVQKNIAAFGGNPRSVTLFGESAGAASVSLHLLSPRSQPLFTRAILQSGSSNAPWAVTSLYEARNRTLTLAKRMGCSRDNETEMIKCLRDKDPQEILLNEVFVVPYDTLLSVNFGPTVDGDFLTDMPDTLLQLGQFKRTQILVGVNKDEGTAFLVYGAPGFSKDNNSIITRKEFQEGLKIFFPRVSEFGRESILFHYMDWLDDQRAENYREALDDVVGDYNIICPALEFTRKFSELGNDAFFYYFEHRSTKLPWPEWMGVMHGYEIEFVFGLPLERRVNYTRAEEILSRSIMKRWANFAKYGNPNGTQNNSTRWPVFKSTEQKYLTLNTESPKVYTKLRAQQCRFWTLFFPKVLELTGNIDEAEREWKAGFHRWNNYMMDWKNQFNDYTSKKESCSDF

[3] = target: EeAChE (Electrophorus electricus, UniProt O42275); assay: Kinetic study of EeAChE inhibition (Lineweaver-Burk plots); type: biochemical
Sequence of EeAChE (O42275 24-633): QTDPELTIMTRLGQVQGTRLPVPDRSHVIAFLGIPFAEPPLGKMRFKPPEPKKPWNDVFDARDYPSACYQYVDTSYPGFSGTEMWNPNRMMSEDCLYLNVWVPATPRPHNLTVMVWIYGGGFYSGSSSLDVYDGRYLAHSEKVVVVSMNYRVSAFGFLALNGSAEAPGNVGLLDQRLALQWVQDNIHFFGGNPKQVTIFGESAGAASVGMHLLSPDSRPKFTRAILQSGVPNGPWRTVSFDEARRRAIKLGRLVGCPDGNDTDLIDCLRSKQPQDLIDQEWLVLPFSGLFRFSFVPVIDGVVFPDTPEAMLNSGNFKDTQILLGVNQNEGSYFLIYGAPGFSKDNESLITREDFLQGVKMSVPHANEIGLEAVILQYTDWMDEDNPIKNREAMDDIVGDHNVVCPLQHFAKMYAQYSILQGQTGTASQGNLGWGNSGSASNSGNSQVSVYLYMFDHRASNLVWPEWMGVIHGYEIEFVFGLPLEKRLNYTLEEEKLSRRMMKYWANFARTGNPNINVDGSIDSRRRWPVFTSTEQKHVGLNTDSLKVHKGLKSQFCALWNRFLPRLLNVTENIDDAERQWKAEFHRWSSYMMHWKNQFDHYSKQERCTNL
Protocol: (§1) Lineweaver-Burk reciprocal plots of initial velocity and substrate concentrations (0.1-1 mM) are presented. […] Lineweaver-Burk reciprocal plots of initial velocity and substrate concentrations (0.1-1 mM) are presented. […] Lineweaver-Burk reciprocal plots of initial velocity and substrate concentrations (0.1-1 mM) are presented. […] Three consecutive centrifuges were performed with buffer. […] 5 µM). All solution were made using Tris buffer pH7.4. […] 5 µM). All solution were made using Tris buffer pH7.4. […] 5 µM). All solution were made using Tris buffer pH7.4. Spectra were obtained after a Short-time incubation
To determine the type of the EeAChE inhibition mechanism of these compounds, a kinetic study was carried out on inhibitor 6.

[4] = target: T1, MAO-A (Rattus norvegicus, UniProt P21396); assay: Reversibility study of MAO-A inhibition (centrifugation and washing); type: biochemical
T1 construct: from tissue; host or cells: rat brain homogenate per the methods
T1 sequence (P21396 1-526): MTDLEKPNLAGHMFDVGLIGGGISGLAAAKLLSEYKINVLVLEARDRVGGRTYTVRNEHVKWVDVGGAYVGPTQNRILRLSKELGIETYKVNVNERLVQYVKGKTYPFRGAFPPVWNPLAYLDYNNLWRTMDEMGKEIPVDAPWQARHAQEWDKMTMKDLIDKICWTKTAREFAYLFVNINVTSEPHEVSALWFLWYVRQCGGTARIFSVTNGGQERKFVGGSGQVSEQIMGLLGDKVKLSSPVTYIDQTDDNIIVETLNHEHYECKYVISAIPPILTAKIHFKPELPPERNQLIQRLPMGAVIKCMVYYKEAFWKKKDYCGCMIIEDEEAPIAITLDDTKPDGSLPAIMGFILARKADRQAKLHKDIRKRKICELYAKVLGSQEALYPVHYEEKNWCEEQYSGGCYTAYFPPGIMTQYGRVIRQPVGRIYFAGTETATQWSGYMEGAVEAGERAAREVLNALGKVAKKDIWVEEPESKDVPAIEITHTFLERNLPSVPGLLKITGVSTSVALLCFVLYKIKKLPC
Protocol: as §1

[5] = target: T2, MAO-B (Rattus norvegicus, UniProt P19643); assay: Reversibility study of MAO-B inhibition (centrifugation and washing); type: biochemical
T2 construct: from tissue; host or cells: rat brain homogenate per the methods
T2 sequence (P19643 1-520): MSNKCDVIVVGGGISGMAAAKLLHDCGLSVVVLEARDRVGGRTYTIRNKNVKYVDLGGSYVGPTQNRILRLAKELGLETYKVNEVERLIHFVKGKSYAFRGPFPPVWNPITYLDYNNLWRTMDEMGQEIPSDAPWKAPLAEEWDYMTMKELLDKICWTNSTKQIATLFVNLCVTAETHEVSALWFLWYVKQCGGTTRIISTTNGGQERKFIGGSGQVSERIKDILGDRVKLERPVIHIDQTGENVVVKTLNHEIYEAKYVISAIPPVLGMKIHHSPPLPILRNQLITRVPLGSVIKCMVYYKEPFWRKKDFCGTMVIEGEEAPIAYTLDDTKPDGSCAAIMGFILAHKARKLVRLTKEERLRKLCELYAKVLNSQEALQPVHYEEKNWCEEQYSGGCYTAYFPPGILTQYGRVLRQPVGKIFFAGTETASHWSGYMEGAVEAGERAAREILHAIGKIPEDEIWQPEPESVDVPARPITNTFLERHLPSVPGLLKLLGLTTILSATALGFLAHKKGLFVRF
Protocol: as §1

[6] = target: T1, MAO-A; assay: Time-dependence of MAO-A inhibition (pre-incubation times); type: biochemical
Protocol: as §1
(§2) Independent inhibition assays were also performed at different pre-incubation periods for both two MAO isoforms (Figure 6). […]

[7] = target: T2, MAO-B; assay: Time-dependence of MAO-B inhibition (pre-incubation times); type: biochemical
Protocol: as §1, §2

[8] = Metal binding assay, spectrophotometric detection of Fe(III) complex; type: physicochemical; details: 10 µM, Tris buffer pH7.4, Fe2(SO4)3 6.25 and 12.5 µM
Protocol: as §1, with “Spectra were obtained after a Short-time incubation” left out
It is known that 8-quinolinol is a strong chelator for biometals such iron and copper. This is an important precondition for the antioxidative-type drugs because it is the excessive iron stores and iron-mediated generation of free radicals in the brain that are thought to be associated with neurodegenerative diseases. Therefore, only chelators with a higher selectivity for iron over copper are expected to chelate iron instead of copper and have potential neuroprotective effects. […] A spectrophotometric method is used for measurement of the copper/iron-complexes stability constants of the compounds.
The metal binding assay was performed by the spectrophotometric detection of the formation of Fe(III)- and Cu(II)-6 complex.

[9] = target: T3, ratMAO-A (Rattus norvegicus, UniProt P21396); assay: Kinetic study of MAO-A inhibition (Lineweaver-Burk plots); type: biochemical; set-up: from tissue; host or cells: rat brain homogenate per the methods
T3 sequence (P21396 1-526): T1 sequence (P21396 1-526)
Protocol: as §1

[10] = target: T3, ratMAO-A; assay: MAO-A inhibition, radiometric method of Fowler and Tipton (14C 5-HT); type: biochemical; set-up: MAO-A and MAO-B activities were determined in rat brain homogenate; from tissue; host or cells: rat brain homogenate per the methods
[11] = Lineweaver-Burk reciprocal plots
[12] = estimated from the slopes of double reciprocal plots
[13] = 20 µM, pre-incubation times 0-360 min

Sequence of electrophorus electricus acetylcholinesterase (eeAChE) (O42275 24-633): as the sequence (O42275 24-633) above

C#CCN(Cc1ccc(O)c2ncccc12)C(C#N)CCC1CCN(Cc2ccccc2)CC1 (stereo not drawn) [Compound 6, 4-(1-benzylpiperidin-4-yl)-2-(((8-hydroxyquinolin-5-yl)methyl)(prop-2-yny)amino)butanenitrile]
IC50 [1]: 1.77 ± 0.1 µM | fold more active than M-30 for the inhibition of AChE ([1]; compared with M-30): 64 fold | fold more active than donepezil 1 for eqBuChE inhibition [2]: 4.5 fold | IC50 ([2]; 20 minutes incubation at 37°C, mean ± standard error of the mean, read-out: IC50 eqBuChE): 1.63 ± 0.25 µM | BuChE/ AChE ([2]; ratio of IC50 values): 0.92 | type of EeAChE inhibition mechanism [3, 11]: mixed-type inhibition | Ki [3, 12]: 1.21 ± 0.25 µM | reversibility of MAO-A inhibition ([4]; 30 min inhibition (6 at 10 µM, clorgyline 50 nM), three consecutive centrifugations and washings with buffer): reversibly inhibited | MAO-A activity recovering ([4]; inhibited at 10 µM for 30 min, three consecutive centrifuges with buffer, mean ± SEM): 56.5 ± 9.3% | reversibility of MAO-B inhibition ([5]; 30 min inhibition (6 at 20 µM, I-deprenyl 20 nM), three consecutive centrifugations and washings with buffer): reversibly inhibited | MAO-B activity recovering ([5]; inhibited at 20 µM for 30 min, three consecutive centrifuges with buffer, mean ± SEM): 55.8 ± 4.0% | pre-incubation period to complete MAO-A activity inhibition [6, 13]: ≥ 180 min | time-dependence of MAO-A inhibition [6, 13]: irreversible behaviour; also recorded: time-dependent | IC50 ([6]; pre-incubation time 0 min): 29.1 µM | IC50 ([6]; pre-incubation time 30 min): 5.8 µM | IC50 ([6]; pre-incubation time 60 min): 2.3 µM | IC50 ([6]; pre-incubation time 240 min): 0.7 µM | pre-incubation period to complete MAO-B activity inhibition [7, 13]: ≥ 180 min | time-dependence of MAO-B inhibition [7, 13]: irreversible behaviour; also recorded: time-dependent | IC50 ([7]; pre-incubation time 0 min): 61.7 µM | IC50 ([7]; pre-incubation time 30 min): 9.3 µM | IC50 ([7]; pre-incubation time 60 min): 3.3 µM | IC50 ([7]; pre-incubation time 240 min): 1.2 µM | formation of Fe(III)-6 complex, UV-vis spectrum change ([8]; few minutes after addition): no significative changes in the spectrum were observed | formation of Fe(III)-6 complex, UV-vis spectrum change ([8]; overnight incubation): bathocromic shift of the 240nm-band to the appearance of another one at 250nm | type of MAO-A inhibition mechanism [9, 11]: non-competitive inhibition | Ki [9, 12]: 8.41 ± 1.32 µM | IC50 [10]: 6.16 ± 0.7 µM | fold less active than M-30 for the inhibition of MAO-A [10]: 166 fold | fold more active than donepezil 1 for MAO-A [10]: 138 fold
